Results reported in BindingDB's records for doi:10.1021/acs.jmedchem.0c00012 (University of Perugia, 2020).

Target: T1, Nuclear receptor subfamily 1 group I member 2 (Homo sapiens, UniProt O75469)
T1 sequence (O75469 whole entry): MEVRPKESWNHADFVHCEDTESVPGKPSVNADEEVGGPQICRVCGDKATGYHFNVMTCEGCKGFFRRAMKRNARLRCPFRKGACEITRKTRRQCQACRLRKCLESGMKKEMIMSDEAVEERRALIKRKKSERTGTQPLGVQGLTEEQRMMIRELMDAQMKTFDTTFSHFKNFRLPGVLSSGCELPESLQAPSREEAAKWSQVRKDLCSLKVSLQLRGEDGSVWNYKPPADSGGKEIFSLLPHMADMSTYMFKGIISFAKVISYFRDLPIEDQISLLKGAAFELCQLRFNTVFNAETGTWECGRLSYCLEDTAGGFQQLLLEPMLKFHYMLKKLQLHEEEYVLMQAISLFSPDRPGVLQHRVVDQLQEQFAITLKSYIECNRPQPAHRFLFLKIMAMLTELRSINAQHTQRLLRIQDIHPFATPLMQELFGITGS
Test: Agonist activity at His-tagged PXR-LBD/SRC-1p (unknown origin) expressed in Escherichia coli BL21(DE3) by coactivator recruitment based Alpha-screen assay

Structure (SMILES): Cc1c(C)c2c(c(C)c1O)CC[C@@](C)(CCC[C@H](C)CCC[C@H](C)CCCC(C)C(=O)O)O2 (stereo partly specified)
- EC50: 3.3 µM
